Experimental data taken from US10131652B2, “Pyrimidinyloxy benzene derivatives as herbicides” (E. I. DU PONT DE NEMOURS AND COMPANY, priority 2014, dated 2018).
Read-outs that look alike come from different tables or passages of the source.

How the values were obtained:
Test in all cases: Test D pre-/postemergence plant response
Assay type in all cases: in vivo
[1] = system: barnyardgrass (Echinochloa crus-galli); conditions: Echinochloa crus-galli; for pest or weed control at 16 g/ha: 16 g ai/ha; for pest or weed control at 31 g/ha: 31 g ai/ha; for pest or weed control at 62 g/ha: 62 g ai/ha; for pest or weed control at 125 g/ha: 125 g ai/ha
Summary of the method: (§1)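 Preemergence: seeds in loam/sand blend treated with test chemicals in non-phytotoxic solvent with surfactant; postemergence: plants at 2–18 cm (1- to 4-leaf stage) in peat-based medium sprayed likewise. Greenhouse 13 to 15 days, then visual rating vs controls, 0 (no effect) to 100 (complete control).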

[2] = system: waterhemp (common waterhemp, Amaranthus rudis); conditions: Amaranthus tuberculatus; for pest or weed control at 31 g/ha: 31 g ai/ha; for pest or weed control at 62 g/ha: 62 g ai/ha; for pest or weed control at 125 g/ha: 125 g ai/ha
Summary of the method: as §1

[3] = system: ragweed (common ragweed, Ambrosia elatior); conditions: Ambrosia artemisiifolia; for pest or weed control at 31 g/ha: 31 g ai/ha; for pest or weed control at 62 g/ha: 62 g ai/ha; for pest or weed control at 125 g/ha: 125 g ai/ha
Summary of the method: as §1

[4] = system: oilseed rape (Brassica napus); conditions: Brassica napus; for plant injury at 31 g/ha: 31 g ai/ha
Summary of the method: as §1

[5] = system: velvetleaf (Abutilon theophrasti); conditions: Abutilon theophrasti; for pest or weed control at 31 g/ha: 31 g ai/ha; for pest or weed control at 62 g/ha: 62 g ai/ha; for pest or weed control at 125 g/ha: 125 g ai/ha
Summary of the method: as §1

[6] = system: Italian ryegrass (Lolium multiflorum); conditions: Lolium multiflorum; for pest or weed control at 31 g/ha: 31 g ai/ha; for pest or weed control at 62 g/ha: 62 g ai/ha; for pest or weed control at 125 g/ha: 125 g ai/ha
Summary of the method: as §1

[7] = system: large (Lg) crabgrass (Digitaria sanguinalis); conditions: Digitaria sanguinalis; for pest or weed control at 16 g/ha: 16 g ai/ha; for pest or weed control at 31 g/ha: 31 g ai/ha; for pest or weed control at 62 g/ha: 62 g ai/ha; for pest or weed control at 125 g/ha: 125 g ai/ha
Summary of the method: as §1

soybean (Glycine max) = conditions: Glycine max; for plant injury at 31 g/ha: 31 g ai/ha; for plant injury at 62 g/ha: 62 g ai/ha; for plant injury at 125 g/ha: 125 g ai/ha
Summary of the method: as §1

[8] = system: giant foxtail (Setaria faberii); conditions: Setaria faberi; for pest or weed control at 16 g/ha: 16 g ai/ha; for pest or weed control at 31 g/ha: 31 g ai/ha; for pest or weed control at 62 g/ha: 62 g ai/ha; for pest or weed control at 125 g/ha: 125 g ai/ha
Summary of the method: as §1

[9] = post-emergence, Postemergence, scale 0 to 100 (0 no effect, 100 complete control), read-out: Barnyardgrass plant response rating
[10] = post-emergence, Postemergence, scale 0 to 100, 0 no effect, 100 complete control, read-out: Plant response rating, Barnyardgrass
[11] = pre-emergence, Preemergence, scale 0 to 100 (0 no effect, 100 complete control), read-out: Plant response rating, Barnyardgrass
[12] = post-emergence, Postemergence, scale 0 to 100, 0 no effect, 100 complete control, read-out: Plant response rating, Waterhemp
[13] = pre-emergence, Preemergence, scale 0 to 100 (0 no effect, 100 complete control), read-out: Plant response rating, Waterhemp
[14] = post-emergence, Postemergence, scale 0 to 100, 0 no effect, 100 complete control, read-out: Plant response rating, Ragweed
[15] = pre-emergence, Preemergence, scale 0 to 100 (0 no effect, 100 complete control), read-out: Plant response rating, Ragweed
[16] = post-emergence, Postemergence, scale 0 to 100, 0 no effect, 100 complete control, read-out: Plant response rating, Velvetleaf
[17] = pre-emergence, Preemergence, scale 0 to 100 (0 no effect, 100 complete control), read-out: Plant response rating, Velvetleaf
[18] = post-emergence, Postemergence, scale 0 to 100, 0 no effect, 100 complete control, read-out: Plant response rating, Ryegrass, Italian
[19] = pre-emergence, Preemergence, scale 0 to 100 (0 no effect, 100 complete control), read-out: Plant response rating, Ryegrass, Italian
[20] = post-emergence, Postemergence, scale 0 to 100 (0 no effect, 100 complete control), read-out: Crabgrass, Large plant response rating
[21] = post-emergence, Postemergence, scale 0 to 100, 0 no effect, 100 complete control, read-out: Plant response rating, Crabgrass, Large
[22] = pre-emergence, Preemergence, scale 0 to 100 (0 no effect, 100 complete control), read-out: Plant response rating, Crabgrass, Large
[23] = post-emergence, Postemergence, scale 0 to 100, 0 no effect, 100 complete control, read-out: Plant response rating, Soybean
[24] = pre-emergence, Preemergence, scale 0 to 100 (0 no effect, 100 complete control), read-out: Plant response rating, Soybean
[25] = post-emergence, Postemergence, scale 0 to 100 (0 no effect, 100 complete control), read-out: Foxtail, Giant plant response rating
[26] = post-emergence, Postemergence, scale 0 to 100, 0 no effect, 100 complete control, read-out: Plant response rating, Foxtail, Giant
[27] = pre-emergence, Preemergence, scale 0 to 100 (0 no effect, 100 complete control), read-out: Plant response rating, Foxtail, Giant

Question: Fc1cccc(Oc2ncc(Br)cn2)c1-c1cc(C(F)F)no1 [Compound 145, 5-bromo-2-[2-[3-(difluoromethyl)-5-isoxazolyl]-3-fluorophenoxy]pyrimidine] was tested. Which pest or weed control at 16 g/ha [1, 9] did it give?
Answer: 5%

Question: And the pest or weed control at 31 g/ha [1, 9]?
Answer: 5%

Question: What about the pest or weed control at 62 g/ha [1, 10] of the same molecule?
Answer: 10%

Question: What about the pest or weed control at 125 g/ha [1, 10] of the same molecule?
Answer: 30%

Question: And the pest or weed control at 125 g/ha ([1]; pre-emergence, Preemergence, read-out: Plant response rating (scale 0 to 100), Barnyardgrass)?
Answer: 100%

Question: What about the pest or weed control at 16 g/ha [1, 11] of the same molecule?
Answer: 65%

Question: And the pest or weed control at 31 g/ha [1, 11]?
Answer: 85%

Question: What about the pest or weed control at 62 g/ha [1, 11] of the same molecule?
Answer: 85%

Question: And the pest or weed control at 31 g/ha ([2]; post-emergence, Postemergence, scale 0 to 100 (0 no effect, 100 complete control), read-out: Waterhemp plant response rating)?
Answer: 90%

Question: And the pest or weed control at 62 g/ha [2, 12]?
Answer: 100%

Question: What about the pest or weed control at 125 g/ha [2, 12] of the same molecule?
Answer: 100%

Question: And the pest or weed control at 125 g/ha ([2]; pre-emergence, Preemergence, read-out: Plant response rating (scale 0 to 100), Waterhemp)?
Answer: 100%

Question: What about the pest or weed control at 16 g/ha ([2]; pre-emergence, Preemergence, 16 g ai/ha, scale 0 to 100 (0 no effect, 100 complete control), read-out: Plant response rating, Waterhemp) of the same molecule?
Answer: 100%

Question: What about the pest or weed control at 31 g/ha [2, 13] of the same molecule?
Answer: 100%

Question: And the pest or weed control at 62 g/ha [2, 13]?
Answer: 100%

Question: And the pest or weed control at 31 g/ha ([3]; post-emergence, Postemergence, scale 0 to 100 (0 no effect, 100 complete control), read-out: Ragweed plant response rating)?
Answer: 50%

Question: What about the pest or weed control at 62 g/ha [3, 14] of the same molecule?
Answer: 50%

Question: And the pest or weed control at 125 g/ha [3, 14]?
Answer: 65%

Question: What about the pest or weed control at 125 g/ha ([3]; pre-emergence, Preemergence, read-out: Plant response rating (scale 0 to 100), Ragweed) of the same molecule?
Answer: 100%

Question: And the pest or weed control at 16 g/ha ([3]; pre-emergence, Preemergence, 16 g ai/ha, scale 0 to 100 (0 no effect, 100 complete control), read-out: Plant response rating, Ragweed)?
Answer: 25%

Question: What about the pest or weed control at 31 g/ha [3, 15] of the same molecule?
Answer: 60%

Question: What about the pest or weed control at 62 g/ha [3, 15] of the same molecule?
Answer: 75%

Question: And the plant injury at 31 g/ha ([4]; post-emergence, Postemergence, scale 0 to 100 (0 no effect, 100 complete control), read-out: Oilseed Rape plant response rating)?
Answer: 70%

Question: What about the plant injury at 125 g/ha ([4]; pre-emergence, Preemergence, 125 g ai/ha, read-out: Plant response rating (scale 0 to 100), Oilseed Rape) of the same molecule?
Answer: 100%

Question: What about the plant injury at 16 g/ha ([4]; pre-emergence, Preemergence, 16 g ai/ha, scale 0 to 100 (0 no effect, 100 complete control), read-out: Plant response rating, Oilseed Rape) of the same molecule?
Answer: 40%

Question: And the plant injury at 31 g/ha ([4]; pre-emergence, Preemergence, scale 0 to 100 (0 no effect, 100 complete control), read-out: Plant response rating, Oilseed Rape)?
Answer: 100%

Question: What about the plant injury at 62 g/ha ([4]; pre-emergence, Preemergence, 62 g ai/ha, scale 0 to 100 (0 no effect, 100 complete control), read-out: Plant response rating, Oilseed Rape) of the same molecule?
Answer: 100%

Question: What about the pest or weed control at 31 g/ha ([5]; post-emergence, Postemergence, scale 0 to 100 (0 no effect, 100 complete control), read-out: Velvetleaf plant response rating) of the same molecule?
Answer: 70%

Question: What about the pest or weed control at 62 g/ha [5, 16] of the same molecule?
Answer: 75%

Question: And the pest or weed control at 125 g/ha [5, 16]?
Answer: 80%

Question: And the pest or weed control at 125 g/ha ([5]; pre-emergence, Preemergence, read-out: Plant response rating (scale 0 to 100), Velvetleaf)?
Answer: 100%

Question: What about the pest or weed control at 16 g/ha ([5]; pre-emergence, Preemergence, 16 g ai/ha, scale 0 to 100 (0 no effect, 100 complete control), read-out: Plant response rating, Velvetleaf) of the same molecule?
Answer: 90%

Question: And the pest or weed control at 31 g/ha [5, 17]?
Answer: 100%

Question: What about the pest or weed control at 62 g/ha [5, 17] of the same molecule?
Answer: 100%

Question: And the pest or weed control at 31 g/ha ([6]; post-emergence, Postemergence, scale 0 to 100 (0 no effect, 100 complete control), read-out: Ryegrass, Italian plant response rating)?
Answer: 0%

Question: And the pest or weed control at 62 g/ha [6, 18]?
Answer: 10%

Question: What about the pest or weed control at 125 g/ha [6, 18] of the same molecule?
Answer: 10%

Question: What about the pest or weed control at 125 g/ha ([6]; pre-emergence, Preemergence, read-out: Plant response rating (scale 0 to 100), Ryegrass, Italian) of the same molecule?
Answer: 85%

Question: What about the pest or weed control at 16 g/ha ([6]; pre-emergence, Preemergence, 16 g ai/ha, scale 0 to 100 (0 no effect, 100 complete control), read-out: Plant response rating, Ryegrass, Italian) of the same molecule?
Answer: 0%

Question: What about the pest or weed control at 31 g/ha [6, 19] of the same molecule?
Answer: 35%

Question: What about the pest or weed control at 62 g/ha [6, 19] of the same molecule?
Answer: 70%

Question: What about the pest or weed control at 16 g/ha [7, 20] of the same molecule?
Answer: 5%

Question: And the pest or weed control at 31 g/ha [7, 20]?
Answer: 10%

Question: What about the pest or weed control at 62 g/ha [7, 21] of the same molecule?
Answer: 10%

Question: And the pest or weed control at 125 g/ha [7, 21]?
Answer: 20%

Question: And the pest or weed control at 125 g/ha ([7]; pre-emergence, Preemergence, read-out: Plant response rating (scale 0 to 100), Crabgrass, Large)?
Answer: 100%

Question: And the pest or weed control at 16 g/ha [7, 22]?
Answer: 85%

Question: What about the pest or weed control at 31 g/ha [7, 22] of the same molecule?
Answer: 100%

Question: And the pest or weed control at 62 g/ha [7, 22]?
Answer: 100%

Question: What about the plant injury at 31 g/ha (soybean (Glycine max); post-emergence, Postemergence, scale 0 to 100 (0 no effect, 100 complete control), read-out: Soybean plant response rating) of the same molecule?
Answer: 60%

Question: And the plant injury at 62 g/ha (soybean (Glycine max); [23])?
Answer: 75%

Question: What about the plant injury at 125 g/ha (soybean (Glycine max); [23]) of the same molecule?
Answer: 75%

Question: What about the plant injury at 125 g/ha (soybean (Glycine max); pre-emergence, Preemergence, read-out: Plant response rating (scale 0 to 100), Soybean) of the same molecule?
Answer: 90%

Question: And the plant injury at 16 g/ha (soybean (Glycine max); pre-emergence, Preemergence, 16 g ai/ha, scale 0 to 100 (0 no effect, 100 complete control), read-out: Plant response rating, Soybean)?
Answer: 10%

Question: What about the plant injury at 31 g/ha (soybean (Glycine max); [24]) of the same molecule?
Answer: 60%

Question: What about the plant injury at 62 g/ha (soybean (Glycine max); [24]) of the same molecule?
Answer: 75%

Question: And the pest or weed control at 16 g/ha [8, 25]?
Answer: 5%

Question: And the pest or weed control at 31 g/ha [8, 25]?
Answer: 10%

Question: And the pest or weed control at 62 g/ha [8, 26]?
Answer: 20%

Question: And the pest or weed control at 125 g/ha [8, 26]?
Answer: 20%

Question: And the pest or weed control at 125 g/ha ([8]; pre-emergence, Preemergence, read-out: Plant response rating (scale 0 to 100), Foxtail, Giant)?
Answer: 100%

Question: What about the pest or weed control at 16 g/ha [8, 27] of the same molecule?
Answer: 85%

Question: And the pest or weed control at 31 g/ha [8, 27]?
Answer: 100%

Question: And the pest or weed control at 62 g/ha [8, 27]?
Answer: 100%
